The values below come from ChEMBL document CHEMBL1157938, “Cytotoxicity and inhibition of DNA topoisomerase I of polyhydroxylated triterpenoids and triterpenoid glycosides” (Bioorg Med Chem Lett, 2010).

Molecules are shown by their SMILES. Activity calls are given as the source filed them. The calls are words filed in the database; no cut-off is given here.

What is called IC50 is the point on the concentration scale where inhibition reaches its midpoint. High values mean weaker potency in that assay, low ones greater potency in that assay. In general, GI50 refers to the concentration giving 50% growth inhibition.

The target in data set [1] is DNA topoisomerase 2-alpha (Homo sapiens, UniProt P11388). Nature of the data set: Inhibition of human DNA topoisomerase 2-mediated relaxation of supercoiled DNA by gel electrophoresis.
Chain of DNA topoisomerase 2-alpha (P11388 whole entry): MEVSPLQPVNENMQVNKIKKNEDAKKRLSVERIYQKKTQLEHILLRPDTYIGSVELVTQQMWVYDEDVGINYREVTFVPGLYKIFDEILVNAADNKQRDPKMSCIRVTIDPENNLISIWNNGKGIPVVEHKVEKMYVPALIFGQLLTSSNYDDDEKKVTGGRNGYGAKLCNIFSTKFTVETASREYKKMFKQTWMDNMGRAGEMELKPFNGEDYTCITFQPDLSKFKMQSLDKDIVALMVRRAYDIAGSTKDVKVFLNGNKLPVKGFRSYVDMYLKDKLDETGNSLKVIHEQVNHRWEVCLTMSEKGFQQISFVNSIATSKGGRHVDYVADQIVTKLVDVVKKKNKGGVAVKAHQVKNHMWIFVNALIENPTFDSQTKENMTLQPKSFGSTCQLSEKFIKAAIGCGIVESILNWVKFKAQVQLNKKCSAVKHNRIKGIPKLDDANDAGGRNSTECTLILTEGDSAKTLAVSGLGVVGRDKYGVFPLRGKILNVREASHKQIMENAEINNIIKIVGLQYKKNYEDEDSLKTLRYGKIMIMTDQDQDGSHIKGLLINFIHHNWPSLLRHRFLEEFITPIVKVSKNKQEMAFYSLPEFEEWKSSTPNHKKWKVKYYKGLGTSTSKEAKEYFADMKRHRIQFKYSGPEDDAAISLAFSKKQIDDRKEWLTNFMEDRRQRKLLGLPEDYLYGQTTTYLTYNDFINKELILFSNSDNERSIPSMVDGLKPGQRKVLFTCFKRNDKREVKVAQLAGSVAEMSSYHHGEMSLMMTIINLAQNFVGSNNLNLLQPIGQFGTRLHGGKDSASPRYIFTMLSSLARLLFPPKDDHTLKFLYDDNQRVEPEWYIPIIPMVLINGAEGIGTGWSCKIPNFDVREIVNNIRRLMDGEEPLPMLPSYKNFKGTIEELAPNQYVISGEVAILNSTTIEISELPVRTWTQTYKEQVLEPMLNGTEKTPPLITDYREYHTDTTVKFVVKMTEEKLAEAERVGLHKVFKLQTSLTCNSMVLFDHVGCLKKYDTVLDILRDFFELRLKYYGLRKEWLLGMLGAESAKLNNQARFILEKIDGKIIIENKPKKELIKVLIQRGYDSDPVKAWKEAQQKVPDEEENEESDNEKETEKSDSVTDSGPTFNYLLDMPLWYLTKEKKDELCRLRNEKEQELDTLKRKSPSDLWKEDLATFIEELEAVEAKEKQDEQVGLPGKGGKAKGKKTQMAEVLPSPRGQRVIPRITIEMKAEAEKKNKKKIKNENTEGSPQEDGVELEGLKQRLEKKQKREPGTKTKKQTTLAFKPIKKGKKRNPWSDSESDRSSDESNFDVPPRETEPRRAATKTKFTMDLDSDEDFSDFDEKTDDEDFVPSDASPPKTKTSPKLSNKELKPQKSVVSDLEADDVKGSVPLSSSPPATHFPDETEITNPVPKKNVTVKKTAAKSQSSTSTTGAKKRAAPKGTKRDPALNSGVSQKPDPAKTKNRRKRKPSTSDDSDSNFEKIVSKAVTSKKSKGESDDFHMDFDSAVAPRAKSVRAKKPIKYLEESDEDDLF
The target of data set [2] is T1, DNA topoisomerase 1 (Homo sapiens) (UniProt P11387).
T1 sequence (whole entry): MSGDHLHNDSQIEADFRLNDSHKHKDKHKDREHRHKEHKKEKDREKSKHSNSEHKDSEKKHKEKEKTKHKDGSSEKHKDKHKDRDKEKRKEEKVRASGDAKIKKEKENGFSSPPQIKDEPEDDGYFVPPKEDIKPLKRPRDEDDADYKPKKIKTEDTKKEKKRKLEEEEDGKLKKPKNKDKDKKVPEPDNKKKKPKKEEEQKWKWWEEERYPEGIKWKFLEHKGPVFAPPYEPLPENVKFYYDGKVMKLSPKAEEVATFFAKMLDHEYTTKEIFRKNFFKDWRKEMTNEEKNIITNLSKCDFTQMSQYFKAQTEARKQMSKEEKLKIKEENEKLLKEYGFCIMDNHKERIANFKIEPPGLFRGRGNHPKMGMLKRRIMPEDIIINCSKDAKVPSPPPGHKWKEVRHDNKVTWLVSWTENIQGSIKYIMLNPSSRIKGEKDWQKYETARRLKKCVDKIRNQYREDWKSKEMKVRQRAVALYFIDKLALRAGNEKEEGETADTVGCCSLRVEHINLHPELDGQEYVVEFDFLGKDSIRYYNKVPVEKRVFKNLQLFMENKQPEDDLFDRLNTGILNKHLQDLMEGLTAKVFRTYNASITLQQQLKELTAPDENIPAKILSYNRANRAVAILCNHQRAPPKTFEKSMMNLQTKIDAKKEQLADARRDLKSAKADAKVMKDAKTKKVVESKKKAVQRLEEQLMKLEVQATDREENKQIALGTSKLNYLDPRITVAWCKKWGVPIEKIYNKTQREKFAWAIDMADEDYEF
The experiment in a line: Inhibition of human DNA topoisomerase 1-mediated relaxation of supercoiled DNA at 63 uM.

Data set [3] deals with HL-60. Nature of the data set: Cytotoxicity against human HL60 cells after 48 hrs by WST8 assay. To be noted: HL-60, 48 h. The class given is functional.
Data set [4] concerns PANC-1. Nature of the data set: Cytotoxicity against human PANC1 cells after 48 hrs by WST8 assay. Type of data set: functional. To be noted: PANC-1, 48 h.
In data set [5] the target is T1, DNA topoisomerase 1 (Homo sapiens). Nature of the data set: Inhibition of human DNA topoisomerase 1 assessed as prevention of DNA-enzyme complex formation.
The test system of data set [6] is A549. The experiment in a line: Cytotoxicity against human A549 cells after 48 hrs by WST8 assay. Type of data set: functional. To be noted: A549, 48 h. A general note: Tetrazolium dyes change colour on reduction, which living cells bring about.
The target of data set [7] is T1, DNA topoisomerase 1 (Homo sapiens). Nature of the data set: Inhibition of human DNA topoisomerase 1 assessed as stabilize DNA-enzyme covalent complex.
Data set [8] in a line: Cytotoxicity against human MRC5 cells after 48 hrs by WST8 assay. Type of data set: cell-based.
Data set [9] deals with T1, DNA topoisomerase 1 (Homo sapiens). Nature of the data set: Inhibition of human DNA topoisomerase 1-mediated relaxation of supercoiled DNA at 63 to 125 uM.
The target in data set [10] is T2, DNA topoisomerase 1 (Homo sapiens, UniProt P11387).
T2 sequence (P11387 whole entry): T1 sequence (whole entry)
The experiment in a line: Inhibition of human DNA topoisomerase 1-mediated relaxation of supercoiled DNA by gel electrophoresis.

Data set [11] deals with PC-3. Nature of the data set: Cytotoxicity against human PC3 cells after 48 hrs by WST8 assay. Type of data set: functional. The note with it: PC-3, 48 h.
Data set [12] addresses T2, DNA topoisomerase 1. Nature of the data set: Inhibition of human DNA topoisomerase 1 at free enzyme state.
Data set [13] concerns the target T1, DNA topoisomerase 1 (Homo sapiens). Nature of the data set: Inhibition of human DNA topoisomerase 1-mediated relaxation of supercoiled DNA at 312 uM.
For data set [14] the target is unchanged. The experiment in a line: Inhibition of human DNA topoisomerase 1 assessed as intercalate into DNA at 312 uM.
The target is the same in data set [15]. Nature of the data set: Inhibition of human DNA topoisomerase 1-mediated relaxation of supercoiled DNA at 450 uM.
A short description of data set [16]: Inhibition of Leishmania donovani DNA topoisomerase 1 preincubated before addition of DNA.
Data set [17] concerns the target T3, DNA topoisomerase 1 (Rattus norvegicus, UniProt Q9WUL0).
T3 sequence (Q9WUL0 whole entry): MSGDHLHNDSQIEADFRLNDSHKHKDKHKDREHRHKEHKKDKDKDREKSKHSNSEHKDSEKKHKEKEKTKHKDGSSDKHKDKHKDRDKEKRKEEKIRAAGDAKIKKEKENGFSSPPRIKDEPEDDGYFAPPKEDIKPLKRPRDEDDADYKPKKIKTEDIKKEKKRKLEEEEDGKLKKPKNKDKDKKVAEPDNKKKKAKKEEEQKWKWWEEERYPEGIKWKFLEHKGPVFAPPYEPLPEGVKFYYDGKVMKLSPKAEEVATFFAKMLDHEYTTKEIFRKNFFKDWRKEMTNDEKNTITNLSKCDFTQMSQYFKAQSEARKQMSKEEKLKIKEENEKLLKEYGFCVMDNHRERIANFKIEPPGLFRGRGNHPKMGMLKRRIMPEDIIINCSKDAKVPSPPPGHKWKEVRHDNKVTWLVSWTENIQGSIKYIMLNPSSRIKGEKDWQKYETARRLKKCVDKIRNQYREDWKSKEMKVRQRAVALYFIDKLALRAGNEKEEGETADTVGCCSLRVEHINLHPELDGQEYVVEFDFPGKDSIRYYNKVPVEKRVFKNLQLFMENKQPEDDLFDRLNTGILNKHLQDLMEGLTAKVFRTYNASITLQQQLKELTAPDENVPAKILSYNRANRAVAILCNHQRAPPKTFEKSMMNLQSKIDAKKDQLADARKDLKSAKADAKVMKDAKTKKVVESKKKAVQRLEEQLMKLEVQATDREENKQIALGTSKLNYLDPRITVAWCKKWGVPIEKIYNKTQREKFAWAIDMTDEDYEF
Nature of the data set: Inhibition of rat liver DNA topoisomerase 1 treated simultaneously with DNA.

The target in data set [18] is T3, DNA topoisomerase 1. The experiment in a line: Inhibition of rat liver DNA topoisomerase 1 preincubated before addition of DNA.
The nature of data set [19]: Inhibition of Leishmania donovani DNA topoisomerase 1 treated simultaneously with DNA.

Regarding `C/C=C(/C)C(=O)O[C@H]1[C@H](OC(=O)/C(C)=C\C)[C@]2(CO)[C@H](O)C[C@]3(C)C(=CC[C@@H]4[C@@]5(C)CC[C@H](O[C@@H]6O[C@H](C(=O)O)[C@@H](O)[C@H](O[C@@H]7O[C@@H](CO)[C@H](O)[C@H]7O)[C@H]6O[C@@H]6O[C@H](CO)[C@H](O)[C@H](O)[C@H]6O)C(C)(C)[C@@H]5CC[C@]43C)[C@@H]2CC1(C)C`, the figures for the IC50 in [1], in data set [10] and in [12] were more than 250 µM, 27.1 µM and 23.8 µM, respectively. In addition, the inhibition result in data set [2], in [5] and in [9] was “Active” each time. The GI50 in data set [3] stood at 1.97 µM; in data set [4], 11.9 µM; in data set [6], 6.03 µM; in data set [11], 3.26 µM. The inhibition entry in [7] is “inactive”. In data set [8], this compound yielded a GI50 at 48 h of 7.43 µM.
For `C/C=C(/C)C(=O)O[C@H]1[C@H](O)[C@]2(CO)[C@H](O)C[C@]3(C)C(=CC[C@@H]4[C@@]5(C)CC[C@H](O[C@@H]6O[C@H](C(=O)O)[C@@H](O)[C@H](O[C@@H]7O[C@@H](CO)[C@H](O)[C@H]7O)[C@H]6O)[C@](C)(CO)[C@@H]5CC[C@]43C)[C@@H]2CC1(C)C` [AESCULIOSIDE IID], the IC50 is more than 250 µM in [1], 23.8 µM in data set [10] and 23.8 µM in [12]. In addition, the inhibition entry in data set [13] and in data set [7] was “inactive” throughout. The inhibition entry in data set [2], in [5] and in [15] was “Active” in each case. The GI50 is 7.5 µM in data set [3], 10.3 µM in [4], 12.9 µM in [6] and 5.51 µM in data set [11]. The compound also came in with a GI50 at 48 h in data set [8] of 15.4 µM. For the same compound, the result in data set [14] was Active.
`O=c1cc(-c2ccc(O)c(O)c2)oc2cc(O)cc(O)c12` [LUTEOLIN]: the IC50 in [16] was 2.5 µM; in data set [17], 5 µM; in data set [18] it was 0.66 µM; in data set [19], 14 µM.
